According to ChEMBL document CHEMBL1159211, “Antifungal evaluation of pseudolaric acid B, a major constituent of Pseudolarix kaempferi” (J Nat Prod, 1995):
In brackets after ≈: the same amount, converted by molar mass. Values belong to the compound of their own block, whether it stands above or below them. Activity calls are given as the source filed them. The rule behind the calls is not given here.

Tests used:
Candida albicans [1] = test: Antifungal activity against Candida stellatoidea SA-I by twofold serial broth dilution method; assay type: functional
Candida tropicalis [2] = test: Antifungal activity against Candida tropicalis ATCC 20021 by twofold serial broth dilution method; assay type: functional
Candida parapsilosis [3] = test: Antifungal activity against Candida parapsilosis ATCC 20224 at 1 mg/mL by agar-well diffusion assay; assay type: functional; settings: Lodderomyces parapsilosis, ATCC 20224; read-out: IZ
Yarrowia deformans [4] = test: Antifungal activity against Torulopsis petrophilum ATCC 20225 at 1 mg/mL by agar-well diffusion assay; assay type: functional; settings: Yarrowia deformans, ATCC 20225; read-out: IZ
Torula [5] = test: Antifungal activity against Torula cremoris NRRL 7495 by twofold serial broth dilution method; assay type: functional
Candida albicans [6] = test: Antifungal activity against Candida albicans ATCC 10231 by twofold serial broth dilution method; assay type: functional
Candida tropicalis [7] = test: Antifungal activity against Candida tropicalis ATCC 20326 at 1 mg/mL by agar-well diffusion assay; assay type: functional; settings: Candida tropicalis, ATCC 20326; read-out: IZ
Candida parapsilosis [8] = test: Antifungal activity against Candida parapsilosis ATCC 20224 by twofold serial broth dilution method; assay type: functional; settings: Lodderomyces parapsilosis
Starmerella magnoliae = test: Antifungal activity against Candida magnoliae ATCC 12573 at 1 mg/mL by agar-well diffusion assay; assay type: functional; settings: ATCC 12573; read-out: IZ
Yarrowia deformans [9] = test: Antifungal activity against Torulopsis petrophilum ATCC 20225 by twofold serial broth dilution method; assay type: functional
Candida tropicalis [10] = test: Antifungal activity against Candida tropicalis ATCC 20326 by twofold serial broth dilution method; assay type: functional
Torula [11] = test: Antifungal activity against Torula cremoris NRRL 7495 at 1 mg/mL by agar-well diffusion assay; assay type: functional; settings: Torula, NRRL 7495; read-out: IZ
Candida albicans [12] = test: Antifungal activity against Candida albicans NIH B311 infected in mouse assessed as reduction in number of recovered colony-forming units assessed per mg of kidney at 1 mg/kg, ip administered 7 and 24 hrs after infection measured 16 hrs after final injection by tenfold serial dilution method relative to control; assay type: functional; parameters: scale not given: the % may be the effect or the level left; settings: route intraperitoneal
Candida tropicalis [13] = test: Antifungal activity against Candida tropicalis ATCC 20021 at 1 mg/mL by agar-well diffusion assay; assay type: functional; settings: Candida tropicalis, ATCC 20021; read-out: IZ
Candida albicans [14] = test: Antifungal activity against Candida albicans B311 by twofold serial broth dilution method; assay type: functional
Candida albicans [15] = test: Antifungal activity against Candida albicans ATCC 10231 at 1 mg/mL by agar-well diffusion assay; assay type: functional; settings: Candida albicans, ATCC 10231; read-out: IZ
Candida tropicalis [16] = test: Antifungal activity against Candida tropicalis LM 64 by twofold serial broth dilution method; assay type: functional
Candida albicans [17] = test: Antifungal activity against Candida stellatoidea SA-I at 1 mg/mL by agar-well diffusion assay; assay type: functional; settings: Candida albicans; read-out: IZ
Candida albicans [18] = test: Antifungal activity against Candida albicans B311 at 1 mg/mL by agar-well diffusion assay; assay type: functional; settings: Candida albicans, B311; read-out: IZ
Candida tropicalis [19] = test: Antifungal activity against Candida tropicalis LM 64 at 1 mg/mL by agar-well diffusion assay; assay type: functional; settings: Candida tropicalis; read-out: IZ
Cryptococcus neoformans = test: Antimicrobial activity against Cryptococcus neoformans at 1 mg/mL by agar-well diffusion assay; assay type: functional
Staphylococcus aureus = test: Antimicrobial activity against Staphylococcus aureus at 1 mg/mL by agar-well diffusion assay; assay type: functional, organism-based
Pseudomonas aeruginosa = test: Antimicrobial activity against Pseudomonas aeruginosa at 1 mg/mL by agar-well diffusion assay; assay type: functional, organism-based
Candida albicans [20] = test: Antifungal activity against Candida albicans B311 infected in CD1 mouse assessed as prolongation of survival time at 40 mg/kg, ip administered 7 hrs postinfection and continued for 7 or 14 consecutive days; assay type: functional, organism-based; parameters: dose 40 mg/kg
Candida albicans [21] = test: Antifungal activity against Candida albicans B311 assessed decrease in number of viable cells at 1 to 10 ug/ml after 24 hrs by time-to kill curve assay; assay type: functional, organism-based
Bacillus subtilis = test: Antimicrobial activity against Bacillus subtilis at 1 mg/mL by agar-well diffusion assay; assay type: functional, organism-based
Escherichia coli = test: Antimicrobial activity against Escherichia coli at 1 mg/mL by agar-well diffusion assay; assay type: functional, organism-based
Candida albicans [22] = test: Antifungal activity against Candida albicans B311 infected in CD1 mouse assessed as prolongation of survival time at 10 mg/kg, iv administered 1, 3 and 5 days postinfection; assay type: functional, organism-based; parameters: dose 10 mg/kg
Aspergillus flavus = test: Antimicrobial activity against Aspergillus flavus at 1 mg/mL by agar-well diffusion assay; assay type: functional
[23] = tested on: Mycobacterium intracellulare; test: Antimicrobial activity against Mycobacterium intracellular at 1 mg/mL by agar-well diffusion assay; assay type: functional
Saccharomyces cerevisiae = test: Antimicrobial activity against Saccharomyces cerevisiae at 1 mg/mL by agar-well diffusion assay; assay type: functional, organism-based

- MIC (Candida albicans [1]): 3.12 µg/mL (≈ 3.38 µM)
- MIC (Candida tropicalis [2]): 3.12 µg/mL (≈ 3.38 µM)
- MIC (Torula [5]): 3.12 µg/mL (≈ 3.38 µM)
- MIC (Candida albicans [6]): 3.12 µg/mL (≈ 3.38 µM)
- MIC (Candida parapsilosis [8]): 1.56 µg/mL (≈ 1.69 µM)
- MIC (Yarrowia deformans [9]): 0.2 µg/mL (≈ 0.216 µM)
- MIC (Candida tropicalis [10]): 1.56 µg/mL (≈ 1.69 µM)
- MIC (Candida albicans [14]): 1.56 µg/mL (≈ 1.69 µM)
- MIC (Candida tropicalis [16]): 1.56 µg/mL (≈ 1.69 µM)
SMILES: C[C@@H]1[C@H](O)[C@@H](C)/C=C/C=C/C=C/C=C/C=C/C=C/C=C/[C@H](O[C@@H]2O[C@H](C)[C@@H](O)[C@H](N)[C@@H]2O)C[C@@H]2O[C@](O)(C[C@@H](O)C[C@@H](O)[C@H](O)CC[C@@H](O)C[C@@H](O)CC(=O)O[C@H]1C)C[C@H](O)[C@H]2C(=O)O [AMPHOTERICIN B]
- zone of inhibition at 1000 µg/mL (Candida parapsilosis [3]): 3 mm
- zone of inhibition at 1000 µg/mL (Yarrowia deformans [4]): 7 mm
- zone of inhibition at 1000 µg/mL (Candida tropicalis [7]): 7 mm
- zone of inhibition at 1000 µg/mL (Starmerella magnoliae): 7 mm
- zone of inhibition at 1000 µg/mL (Torula [11]): 7 mm
- Activity (Candida albicans [12]): 99.82%
- zone of inhibition at 1000 µg/mL (Candida tropicalis [13]): 7 mm
- zone of inhibition at 1000 µg/mL (Candida albicans [15]): 7 mm
- zone of inhibition at 1000 µg/mL (Candida albicans [17]): 7 mm
- zone of inhibition at 1000 µg/mL (Candida albicans [18]): 7 mm
- zone of inhibition at 1000 µg/mL (Candida tropicalis [19]): 7 mm

SMILES: COC(=O)C1=CC[C@@]23CC[C@@H]([C@@](C)(/C=C/C=C(\C)C(=O)O)OC2=O)[C@@]3(OC(C)=O)CC1
- Activity (Cryptococcus neoformans): inactive
- Activity (Staphylococcus aureus): inactive
- Activity (Pseudomonas aeruginosa): inactive
- Activity (Candida albicans [20]): inactive
- Activity (Candida albicans [21]): Active
- Activity (Bacillus subtilis): inactive
- Activity (Escherichia coli): inactive
- Activity (Candida albicans [22]): Active
- Activity (Aspergillus flavus): inactive
- Activity [23]: inactive
- Activity (Saccharomyces cerevisiae): inactive
